According to BindingDB's records for doi:10.1073/pnas.71.5.1725 (1974):

Target: T1, Muscarinic acetylcholine receptor M2 (Rattus norvegicus, UniProt P10980)
T1 sequence (P10980 whole entry): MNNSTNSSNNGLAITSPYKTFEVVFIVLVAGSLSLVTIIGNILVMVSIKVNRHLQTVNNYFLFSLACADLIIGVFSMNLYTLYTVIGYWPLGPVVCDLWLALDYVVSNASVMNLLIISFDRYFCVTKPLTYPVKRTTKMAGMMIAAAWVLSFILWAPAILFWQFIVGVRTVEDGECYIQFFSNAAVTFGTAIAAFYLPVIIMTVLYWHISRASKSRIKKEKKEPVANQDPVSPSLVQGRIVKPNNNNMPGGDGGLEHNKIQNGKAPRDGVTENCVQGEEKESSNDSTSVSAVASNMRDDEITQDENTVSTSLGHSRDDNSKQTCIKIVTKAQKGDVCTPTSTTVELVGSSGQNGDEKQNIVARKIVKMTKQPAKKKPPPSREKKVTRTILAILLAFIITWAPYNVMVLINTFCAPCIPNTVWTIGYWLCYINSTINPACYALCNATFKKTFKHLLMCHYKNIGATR

Structure (SMILES)	Ki [nM]
CC(C)[N+](C)(CCC(C(N)=O)(c1ccccc1)c1ccccc1)C(C)C	1
O=C1CCCN1CC#CCN1CCCC1 [1-[4-(2-oxo-pyrrolidin-1-yl)-but-2-ynyl]-pyrrolidinium]	500
CN(C)CCC(c1ccc(Br)cc1)c1ccccn1 (stereo not drawn) [2-(p-bromo-alpha-(2-dimethylaminoethyl)benzyl)pyridine]	> 10000
O=C(O)C=CC(=O)Oc1ccc(Cl)cc1 [NSC_6445134]	> 10000
CN(C)CCC(c1ccc(Cl)cc1)c1ccccn1 (stereo not given) [clorfeniramina]	> 10000
